Laboratory results from patent US6599901B1, “Pyridone substituted benzothiazole derivatives” (Hoffman-La Roche Inc., priority 2001, dated 2003).

Tests used:
[1] = biological target: T1, human adenosine A2A receptor (Homo sapiens, UniProt P29274); experiment: [3H]-SCH-58261 binding assay, human adenosine A2A receptor (CHO cell membranes, SPA); conditions: recombinant human A2A receptor in CHO membranes; [3H]-SCH-58261 1 nM; Ki by Cheng-Prussoff; read-out: hA2 (pKi) (converted)
T1 construct: expressed in transfected cells; host or cells: CHO cells, semliki forest virus expression system
T1 sequence (P29274 whole entry): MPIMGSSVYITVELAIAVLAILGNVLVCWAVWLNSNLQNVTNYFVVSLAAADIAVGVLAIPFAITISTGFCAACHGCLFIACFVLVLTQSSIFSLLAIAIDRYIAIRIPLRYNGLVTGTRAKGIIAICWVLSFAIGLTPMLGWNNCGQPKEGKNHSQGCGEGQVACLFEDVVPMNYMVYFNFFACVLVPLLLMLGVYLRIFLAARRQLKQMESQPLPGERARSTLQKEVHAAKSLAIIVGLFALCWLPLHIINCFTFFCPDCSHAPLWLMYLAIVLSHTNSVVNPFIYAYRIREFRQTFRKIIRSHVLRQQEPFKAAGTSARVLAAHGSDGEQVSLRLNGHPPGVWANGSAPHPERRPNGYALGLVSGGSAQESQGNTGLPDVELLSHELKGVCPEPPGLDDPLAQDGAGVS
Experimental: (§1) The human adenosine A2A receptor was recombinantly expressed in chinese hamster ovary (CHO) cells using the semliki forest virus expression system. Cells were harvested, washed twice by centrifugation, homogenised and again washed by centrifugation. The final washed membrane pellet was suspended in a Tris (50 mM) buffer containing 120 mM NaCl, 5 mM KCl, 2 mM CaCl2 and 10 mM MgCl2 (pH 7.4) (buffer A). The [^3H]-SCH-58261 (Dionisotti et al., 1997, Br J Pharmacol 121, 353; 1 nM) binding assay was carried out in 96-well plates in the presence of 2.5 μM of membrane protein, 0.5 mg of Ysi-poly-1-lysine SPA beads and 0.1 U adenosine deaminase in a final volume of 200 μl of buffer A. Non-specific binding was defined using xanthine amine congener (XAC; 2 μM). Compounds were tested at 10 concentrations from 10 μM-0.3 nM. All assays were conducted in duplicate and repeated at least two times. Assay plates were incubated for 1 hour at room temperature before centrifugation and then bound ligand determined using a Packard Topcount scintillation counter. IC50 values were calculated using a non-linear curve fitting program and Ki values calculated using the Cheng-Prussoff equation.

[2] = biological target: T2, human adenosine A1 receptor (Homo sapiens, UniProt P30542); experiment: [3H]-DPCPX binding assay, human adenosine A1 receptor (CHO cell membranes, SPA); conditions: recombinant human A1 receptor in CHO membranes; [3H]-DPCPX 0.6 nM; Ki by Cheng-Prussoff; read-out: hA1 (pKi) (converted)
T2 construct: expressed in transfected cells; host or cells: CHO cells, semliki forest virus expression system
T2 sequence (P30542 1-326): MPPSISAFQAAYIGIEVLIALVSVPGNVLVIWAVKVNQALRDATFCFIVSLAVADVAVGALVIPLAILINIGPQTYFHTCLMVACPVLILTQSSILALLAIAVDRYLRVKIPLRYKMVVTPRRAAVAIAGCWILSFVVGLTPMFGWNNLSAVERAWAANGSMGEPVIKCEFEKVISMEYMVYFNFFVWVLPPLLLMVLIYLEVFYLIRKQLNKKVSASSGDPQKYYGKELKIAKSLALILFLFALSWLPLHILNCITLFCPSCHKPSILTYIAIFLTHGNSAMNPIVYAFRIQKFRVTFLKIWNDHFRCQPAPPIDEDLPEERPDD
Experimental: as §1, with “adenosine A1” for “adenosine A2A”, “The [^3H]-DPCPX (([propyl-^3H]8-cyclopentyl-1,3-dipropyxanthine); 0.6” for “The [^3H]-SCH-58261 (Dionisotti et al., 1997, Br J Pharmacol 121, 353; 1”, “2.5 μg” for “2.5 μM”

Row | SMILES | Ki [1] | Ki [2]
1 | COc1ccc(N2CCOCC2)c2sc(NC(=O)c3ccn(Cc4ccccc4)c(=O)c3)nc12 [Example 1, 1-Benzyl-2-oxo-1,2-dihydro-pyridine-4-carboxylic Acid (4-Methoxy-7-morpholin-4-yl-benzothiazol-2-yl)-amide] | 2.14 nM | 1260 nM
2 | COc1ccc(N2CCOCC2)c2sc(NC(=O)c3ccn(Cc4ccccn4)c(=O)c3)nc12 [Example 4, 2-oxo-1-Pyridin-2-ylmethyl-1,2-dihydro-pyridine-4-carboxylic Acid (4-Methoxy-7-morpholin-4-yl-benzothiazol-2-yl)-amide] | 7.94 nM | 
3 | COc1ccc(N2CCOCC2)c2sc(NC(=O)c3ccn(CC(=O)N4CCOCC4)c(=O)c3)nc12 [Example 5, 1-(2-Morpholin-4-yl-2-oxo-ethyl)-2-oxo-1,2-dihydro-pyridine-4-carboxylic Acid (4-Methoxy-7-morpholin-4-yl-benzothiazol-2-yl)-amide] | 58.9 nM | 

Other lines, results leading:

Row | Ki [1] | Ki [2] | SMILES
4 | 6.46 nM |  | CCOC(=O)Cn1ccc(C(=O)Nc2nc3c(OC)ccc(N4CCOCC4)c3s2)cc1=O [Example 2, [4-(4-Methoxy-7-morpholin-4-yl-benzothiazol-2-ylcarbamoyl)-2-oxo-2H-pyridin-1-yl]-acetic Acid Ethyl Ester]
5 | 5.75 nM |  | CCC(=O)Cn1ccc(C(=O)Nc2nc3c(OC)ccc(N4CCOCC4)c3s2)cc1=O [Example 3, 2-oxo-1-(2-oxo-Butyl)-1,2-dihydro-pyridine-4-carboxylic Acid (4-Methoxy-7-morpholin-4-yl-benzothiazol-2-yl)-amide]
6 | 50.1 nM |  | COc1ccc(N2CCOCC2)c2sc(NC(=O)c3ccn(CC(=O)N(C)C)c(=O)c3)nc12 [Example 6, 1-Dimethylcarbamoylmethyl-2-oxo-1,2-dihydro-pyridine-4-carboxylic Acid (4-Methoxy-7-morpholin-4-yl-benzothiazol-2-yl)-amide]
